From paper PMC12136037, “Type II kinase inhibitors that target Parkinson’s disease–associated LRRK2” (Science Advances, 2025)

Experiments:
Assay in all cases: DSF 100 kinase selectivity screen;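 note: compound tested at 20 µM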
Type in all cases: binding
[1] = molecular target: T1, ~100 representative kinases (Homo sapiens, UniProt P16083); details: protein NQO2; average of three replicates
T1 construct: Recombinant protein kinase domains with a concentration of 2 μM
T1 sequence (P16083 1-231): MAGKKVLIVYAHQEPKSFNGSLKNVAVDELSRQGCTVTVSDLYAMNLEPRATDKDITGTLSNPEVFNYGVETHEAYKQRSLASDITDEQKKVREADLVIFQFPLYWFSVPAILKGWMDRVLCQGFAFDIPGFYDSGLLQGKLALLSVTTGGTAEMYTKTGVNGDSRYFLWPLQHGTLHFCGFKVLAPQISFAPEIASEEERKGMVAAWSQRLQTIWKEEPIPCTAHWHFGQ
Experimental: (§1) Recombinant protein kinase domains with a concentration of 2 μM were mixed with a 20 μM compound solution in dimethyl sulfoxide (DMSO), 20 mM Hepes (pH 7.5), and 500 mM NaCl. SYPRO Orange (5000×, Invitrogen) was added as a fluorescence probe (1μl/ml). Subsequently, temperature-dependent protein unfolding profiles were measured using the QuantStudio 5 realtime PCR machine (Thermo Fisher Scientific, Waltham, MA, USA). […] The temperature was raised with a step rate of 3°C/min. […] Differences in melting temperature are given as ΔTm values in degrees Celsius. […]

[2] = molecular target: T2, ~100 representative kinases (Homo sapiens, UniProt Q09013); details: Protein DMPK1; average of three replicates
T2 construct: Recombinant protein kinase domains with a concentration of 2 μM
T2 sequence (Q09013 1-629): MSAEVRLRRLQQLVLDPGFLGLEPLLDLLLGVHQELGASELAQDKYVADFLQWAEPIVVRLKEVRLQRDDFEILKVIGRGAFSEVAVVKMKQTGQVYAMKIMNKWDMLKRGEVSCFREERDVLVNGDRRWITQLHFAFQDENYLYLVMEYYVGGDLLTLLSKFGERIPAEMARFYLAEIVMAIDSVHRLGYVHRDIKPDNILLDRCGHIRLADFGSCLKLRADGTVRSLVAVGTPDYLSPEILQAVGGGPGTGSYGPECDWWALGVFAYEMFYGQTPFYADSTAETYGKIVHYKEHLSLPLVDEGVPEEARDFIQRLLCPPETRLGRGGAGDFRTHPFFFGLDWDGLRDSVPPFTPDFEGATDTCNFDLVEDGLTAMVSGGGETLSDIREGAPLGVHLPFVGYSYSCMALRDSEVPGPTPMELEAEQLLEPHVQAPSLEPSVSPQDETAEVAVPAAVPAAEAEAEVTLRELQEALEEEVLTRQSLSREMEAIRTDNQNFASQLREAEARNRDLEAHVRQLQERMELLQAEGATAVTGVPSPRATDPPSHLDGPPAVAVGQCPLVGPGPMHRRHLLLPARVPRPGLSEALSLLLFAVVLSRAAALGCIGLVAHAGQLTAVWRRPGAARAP
Experimental: as §1

[3] = molecular target: T3, ~100 representative kinases (Homo sapiens, UniProt O95747); details: protein OSR1; average of three replicates
T3 construct: Recombinant protein kinase domains with a concentration of 2 μM
T3 sequence (O95747 whole entry, the tested form may be a part): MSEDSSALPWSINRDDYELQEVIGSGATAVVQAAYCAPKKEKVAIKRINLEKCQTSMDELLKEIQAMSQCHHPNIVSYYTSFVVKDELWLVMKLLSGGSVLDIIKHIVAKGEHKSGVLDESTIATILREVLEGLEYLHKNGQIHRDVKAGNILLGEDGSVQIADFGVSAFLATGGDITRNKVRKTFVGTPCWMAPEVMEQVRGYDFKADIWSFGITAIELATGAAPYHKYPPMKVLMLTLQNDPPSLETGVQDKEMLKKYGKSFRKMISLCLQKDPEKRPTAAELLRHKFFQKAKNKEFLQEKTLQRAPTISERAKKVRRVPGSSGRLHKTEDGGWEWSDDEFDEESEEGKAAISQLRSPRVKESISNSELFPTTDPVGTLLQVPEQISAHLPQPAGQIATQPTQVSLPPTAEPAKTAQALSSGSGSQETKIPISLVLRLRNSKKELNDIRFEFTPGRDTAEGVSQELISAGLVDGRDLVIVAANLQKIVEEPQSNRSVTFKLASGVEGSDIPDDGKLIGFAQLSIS
Experimental: as §1

[4] = molecular target: T4, ~100 representative kinases (Homo sapiens, UniProt Q96SB4); details: Protein SRPK1; DSF; average of three replicates
T4 construct: Recombinant protein kinase domains with a concentration of 2 μM
T4 sequence (Q96SB4 whole entry, the tested form may be a part): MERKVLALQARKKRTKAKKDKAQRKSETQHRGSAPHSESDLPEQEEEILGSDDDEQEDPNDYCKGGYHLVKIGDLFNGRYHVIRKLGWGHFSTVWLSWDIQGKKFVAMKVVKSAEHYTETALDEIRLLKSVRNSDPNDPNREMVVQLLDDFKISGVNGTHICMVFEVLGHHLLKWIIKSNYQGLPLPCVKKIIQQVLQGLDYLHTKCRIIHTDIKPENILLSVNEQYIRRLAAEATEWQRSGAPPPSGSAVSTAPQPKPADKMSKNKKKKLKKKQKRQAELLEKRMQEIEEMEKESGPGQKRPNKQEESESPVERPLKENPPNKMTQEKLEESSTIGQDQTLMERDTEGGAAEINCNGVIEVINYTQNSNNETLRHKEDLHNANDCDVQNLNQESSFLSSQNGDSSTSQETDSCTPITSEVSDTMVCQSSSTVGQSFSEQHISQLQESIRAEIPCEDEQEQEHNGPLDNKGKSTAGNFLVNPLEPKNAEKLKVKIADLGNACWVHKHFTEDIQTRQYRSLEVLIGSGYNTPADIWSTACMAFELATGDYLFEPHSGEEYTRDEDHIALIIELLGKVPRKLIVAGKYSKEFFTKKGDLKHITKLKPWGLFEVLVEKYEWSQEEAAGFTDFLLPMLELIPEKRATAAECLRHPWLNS
Experimental: as §1

[5] = molecular target: T5, ~100 representative kinases (Homo sapiens, UniProt P21802); details: protein FGFR2; average of three replicates
T5 construct: Recombinant protein kinase domains with a concentration of 2 μM
T5 sequence (P21802 22-821): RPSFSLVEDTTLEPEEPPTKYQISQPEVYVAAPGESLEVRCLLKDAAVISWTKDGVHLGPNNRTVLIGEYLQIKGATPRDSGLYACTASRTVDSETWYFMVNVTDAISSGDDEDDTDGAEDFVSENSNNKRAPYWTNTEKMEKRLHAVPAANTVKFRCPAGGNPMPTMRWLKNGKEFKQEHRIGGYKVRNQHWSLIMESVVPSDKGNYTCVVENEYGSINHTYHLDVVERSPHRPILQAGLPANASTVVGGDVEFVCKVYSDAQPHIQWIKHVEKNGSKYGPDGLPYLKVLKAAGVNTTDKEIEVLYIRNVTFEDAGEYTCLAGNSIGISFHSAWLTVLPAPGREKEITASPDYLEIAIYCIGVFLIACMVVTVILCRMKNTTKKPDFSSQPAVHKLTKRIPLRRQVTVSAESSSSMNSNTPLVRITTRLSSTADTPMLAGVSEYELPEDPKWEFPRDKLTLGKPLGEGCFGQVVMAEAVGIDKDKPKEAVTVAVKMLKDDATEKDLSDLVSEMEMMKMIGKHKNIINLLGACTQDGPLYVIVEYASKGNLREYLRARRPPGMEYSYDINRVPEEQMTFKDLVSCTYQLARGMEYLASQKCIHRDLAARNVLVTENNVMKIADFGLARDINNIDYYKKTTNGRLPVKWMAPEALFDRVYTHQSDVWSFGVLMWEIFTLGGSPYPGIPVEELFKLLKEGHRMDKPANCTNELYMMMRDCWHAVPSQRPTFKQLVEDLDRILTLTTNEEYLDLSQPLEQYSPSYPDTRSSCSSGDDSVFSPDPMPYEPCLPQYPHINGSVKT
Experimental: as §1

[6] = molecular target: T6, ~100 representative kinases (Homo sapiens, UniProt P12931); details: Protein SRC; DSF; average of three replicates
T6 construct: Recombinant protein kinase domains with a concentration of 2 μM
Experimental: as §1

[7] = molecular target: T7, ~100 representative kinases (Homo sapiens, UniProt Q8TDX7); details: protein NEK7; average of three replicates
T7 construct: Recombinant protein kinase domains with a concentration of 2 μM
T7 sequence (Q8TDX7 whole entry, the tested form may be a part): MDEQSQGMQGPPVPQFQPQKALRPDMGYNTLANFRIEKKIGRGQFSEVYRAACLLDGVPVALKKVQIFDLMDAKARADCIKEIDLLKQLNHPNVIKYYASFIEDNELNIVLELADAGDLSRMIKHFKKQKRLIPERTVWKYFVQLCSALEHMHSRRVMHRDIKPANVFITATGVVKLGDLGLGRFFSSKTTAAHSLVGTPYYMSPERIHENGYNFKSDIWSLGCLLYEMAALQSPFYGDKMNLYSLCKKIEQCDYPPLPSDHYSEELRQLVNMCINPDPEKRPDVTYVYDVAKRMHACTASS
Experimental: as §1

[8] = molecular target: T8, ~100 representative kinases (Homo sapiens, UniProt O14965); details: Protein STK6; DSF; average of three replicates
T8 construct: Recombinant protein kinase domains with a concentration of 2 μM
T8 sequence (O14965 1-403): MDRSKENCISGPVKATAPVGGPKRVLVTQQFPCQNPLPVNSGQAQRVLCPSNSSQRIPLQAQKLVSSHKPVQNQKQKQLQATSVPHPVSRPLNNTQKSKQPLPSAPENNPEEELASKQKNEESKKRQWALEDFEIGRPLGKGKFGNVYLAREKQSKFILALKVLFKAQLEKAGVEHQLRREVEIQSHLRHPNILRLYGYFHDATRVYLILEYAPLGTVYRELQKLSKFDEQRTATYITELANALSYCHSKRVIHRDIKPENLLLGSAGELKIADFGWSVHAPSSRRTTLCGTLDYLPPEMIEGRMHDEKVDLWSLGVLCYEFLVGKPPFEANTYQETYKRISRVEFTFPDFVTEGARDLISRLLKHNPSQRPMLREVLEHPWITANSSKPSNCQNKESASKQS
Experimental: as §1

[9] = molecular target: T9, ~100 representative kinases (Homo sapiens, UniProt P17948); details: protein FLT1; average of three replicates
T9 construct: Recombinant protein kinase domains with a concentration of 2 μM
T9 sequence (P17948 27-1338): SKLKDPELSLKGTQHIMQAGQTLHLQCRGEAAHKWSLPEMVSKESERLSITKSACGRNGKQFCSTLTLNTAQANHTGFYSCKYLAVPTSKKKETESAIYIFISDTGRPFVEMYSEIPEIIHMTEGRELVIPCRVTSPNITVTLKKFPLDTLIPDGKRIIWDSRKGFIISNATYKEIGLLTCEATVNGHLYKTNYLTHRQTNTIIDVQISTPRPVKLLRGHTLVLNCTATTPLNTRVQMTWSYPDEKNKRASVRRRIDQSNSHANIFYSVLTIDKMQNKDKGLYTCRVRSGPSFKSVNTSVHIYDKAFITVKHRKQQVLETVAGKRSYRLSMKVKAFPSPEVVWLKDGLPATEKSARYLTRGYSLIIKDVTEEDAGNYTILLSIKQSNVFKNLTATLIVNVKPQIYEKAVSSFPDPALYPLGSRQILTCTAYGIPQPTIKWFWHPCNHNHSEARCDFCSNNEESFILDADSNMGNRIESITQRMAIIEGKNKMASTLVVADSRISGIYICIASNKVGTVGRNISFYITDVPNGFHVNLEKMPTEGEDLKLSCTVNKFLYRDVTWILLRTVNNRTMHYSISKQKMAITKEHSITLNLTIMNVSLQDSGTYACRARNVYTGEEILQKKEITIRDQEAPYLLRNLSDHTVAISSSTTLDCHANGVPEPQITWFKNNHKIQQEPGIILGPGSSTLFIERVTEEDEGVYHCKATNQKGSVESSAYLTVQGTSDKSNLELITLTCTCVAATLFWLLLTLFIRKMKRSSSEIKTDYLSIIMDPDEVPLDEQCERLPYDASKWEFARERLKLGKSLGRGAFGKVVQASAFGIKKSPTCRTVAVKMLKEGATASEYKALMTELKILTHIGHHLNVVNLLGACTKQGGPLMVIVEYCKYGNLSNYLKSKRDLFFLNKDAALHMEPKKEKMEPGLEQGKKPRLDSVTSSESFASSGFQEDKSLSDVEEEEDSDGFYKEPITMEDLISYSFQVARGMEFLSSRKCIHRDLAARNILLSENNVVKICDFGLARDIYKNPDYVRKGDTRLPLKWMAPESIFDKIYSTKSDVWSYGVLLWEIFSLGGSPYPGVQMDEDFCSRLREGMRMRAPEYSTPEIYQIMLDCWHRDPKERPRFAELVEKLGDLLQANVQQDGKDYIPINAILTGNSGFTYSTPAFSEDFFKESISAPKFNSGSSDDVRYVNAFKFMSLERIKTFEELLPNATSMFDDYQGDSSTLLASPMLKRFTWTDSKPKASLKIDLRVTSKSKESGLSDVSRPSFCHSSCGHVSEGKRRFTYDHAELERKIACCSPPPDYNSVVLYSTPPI
Experimental: as §1

[10] = molecular target: T10, ~100 representative kinases (Homo sapiens, UniProt O43293); details: Protein DAPK3; average of three replicates
T10 construct: Recombinant protein kinase domains with a concentration of 2 μM
T10 sequence (O43293 whole entry, the tested form may be a part): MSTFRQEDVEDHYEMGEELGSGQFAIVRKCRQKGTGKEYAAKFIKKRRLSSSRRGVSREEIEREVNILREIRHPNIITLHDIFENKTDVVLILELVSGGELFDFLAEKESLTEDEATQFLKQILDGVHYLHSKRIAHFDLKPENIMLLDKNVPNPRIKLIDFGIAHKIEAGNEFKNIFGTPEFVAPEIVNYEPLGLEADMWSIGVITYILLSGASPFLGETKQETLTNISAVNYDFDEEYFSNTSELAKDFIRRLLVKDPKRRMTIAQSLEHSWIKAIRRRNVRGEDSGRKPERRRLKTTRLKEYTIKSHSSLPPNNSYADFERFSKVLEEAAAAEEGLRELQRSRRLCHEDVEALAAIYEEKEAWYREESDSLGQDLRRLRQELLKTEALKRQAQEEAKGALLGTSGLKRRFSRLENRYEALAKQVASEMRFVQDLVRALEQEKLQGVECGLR
Experimental: as §1

[11] = molecular target: T11, ~100 representative kinases (Homo sapiens, UniProt Q15375); details: Protein EPHA7; average of three replicates
T11 construct: Recombinant protein kinase domains with a concentration of 2 μM
Experimental: as §1

[12] = molecular target: T12, ~100 representative kinases (Homo sapiens, UniProt Q5VT25); details: Protein CDC42BPA; average of three replicates
T12 construct: Recombinant protein kinase domains with a concentration of 2 μM
Experimental: as §1

[13] = molecular target: T13, ~100 representative kinases (Homo sapiens, UniProt Q9UPE1); details: Protein SRPK3; DSF; average of three replicates
T13 construct: Recombinant protein kinase domains with a concentration of 2 μM
T13 sequence (Q9UPE1 whole entry, the tested form may be a part): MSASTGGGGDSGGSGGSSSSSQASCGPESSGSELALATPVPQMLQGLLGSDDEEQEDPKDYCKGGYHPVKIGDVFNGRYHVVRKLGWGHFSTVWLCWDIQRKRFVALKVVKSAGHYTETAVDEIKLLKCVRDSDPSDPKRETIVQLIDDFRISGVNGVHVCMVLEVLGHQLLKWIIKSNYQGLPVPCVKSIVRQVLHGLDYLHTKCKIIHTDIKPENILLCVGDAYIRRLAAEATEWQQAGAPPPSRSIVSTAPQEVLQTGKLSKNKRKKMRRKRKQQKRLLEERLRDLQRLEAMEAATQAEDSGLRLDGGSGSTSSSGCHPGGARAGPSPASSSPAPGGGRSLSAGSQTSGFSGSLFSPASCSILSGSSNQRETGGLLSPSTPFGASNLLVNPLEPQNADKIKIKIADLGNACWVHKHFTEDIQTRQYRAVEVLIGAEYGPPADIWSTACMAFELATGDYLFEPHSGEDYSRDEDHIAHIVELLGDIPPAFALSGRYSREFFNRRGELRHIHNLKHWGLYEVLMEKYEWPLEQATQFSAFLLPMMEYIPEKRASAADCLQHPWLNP
Experimental: as §1

Row | Structure (SMILES) | dTm [1] [K] | dTm [2] [K] | dTm [3] [K] | dTm [4] [K] | dTm [5] [K] | dTm [6] [K] | dTm [7] [K] | dTm [8] [K] | dTm [9] [K] | dTm [10] [K] | dTm [11] [K] | dTm [12] [K] | dTm [13] [K]
1 | Cc1ccc(C(=O)Nc2ccc(CN3CCN(C)CC3)c(C(F)(F)F)c2)cc1C#Cc1c[nH]c2ncnc(N3CCOCC3)c12 [Compound 1] | 0.13 | 0.98 | 1.78 | 15.50 | 4.16 | 1.15 | 1.05 | 12.62 | 4.48 | 0.53 | 1.10 | -1.51 | –
2 | O=C(Nc1ccc(F)cc1)C1(C(=O)Nc2cccc(-c3c[nH]c4ncnc(N5CCOCC5)c34)c2)CC1 [Compound 2] | -0.56 | -0.63 | 1.55 | 10.56 | 2.43 | 0.49 | -0.93 | 6.07 | 3.90 | 7.00 | -1.78 | -0.78 | 6.73
3 | O=C(Nc1cccc(-c2c[nH]c3ncnc(N4CCOCC4)c23)c1)c1cccn(-c2ccc(F)cc2)c1=O [Compound 4] | -0.15 | -0.68 | 1.98 | 9.86 | 5.86 | 1.27 | -0.10 | 7.18 | 4.33 | 5.01 | -1.83 | -0.81 | 5.16
4 | Cc1cc(NC(=O)C2(C(=O)Nc3ccc(F)cc3)CC2)cc(-c2c[nH]c3ncnc(N4CCOCC4)c23)c1 [Compound 6] | -2.13 | 1.12 | -0.63 | 7.72 | 1.97 | 0.20 | 0.23 | 6.69 | 1.73 | 3.25 | 1.69 | -0.90 | 4.54
5 | O=C(Nc1cccc(-c2c[nH]c3ncnc(N4CCOCC4)c23)c1)C1(C(=O)Nc2cccc3c2CCC3)CC1 [Compound 11] | -2.54 | -0.08 | 0.42 | 6.49 | 2.75 | 2.66 | 0.84 | 4.34 | 1.96 | 3.33 | 1.36 | -1.26 | 3.94
6 | O=C(Nc1ccccc1)C1(C(=O)Nc2cccc(-c3c[nH]c4ncnc(N5CCOCC5)c34)c2)CC1 [Compound 12] | 1.99 | -0.21 | 1.28 | 7.66 | 2.56 | 1.12 | -0.19 | 6.39 | 3.09 | 6.20 | -1.64 | -0.16 | 4.78
7 | COc1cc2c(Oc3ccc(NC(=O)C4(C(=O)Nc5ccc(F)cc5)CC4)cc3F)ccnc2cc1OCCCN1CCOCC1 [Foretinib, reference compound] | 0.08 | -0.67 | -0.48 | 7.77 | 7.20 | 8.21 | -0.49 | – | – | 5.00 | -0.16 | 0.32 | 7.41
8 | CCNc1nc(Nc2cc(F)c(C(=O)N3CCOCC3)cc2OC)ncc1C(F)(F)F [GNE-7915] | – | 0.77 | 0.21 | 0.15 | 0.49 | -0.11 | 0.34 | 3.65 | 1.69 | 1.72 | -0.20 | -0.72 | –
9 | Cc1ccc(C(=O)Nc2ccc(CN3CCN(C)CC3)c(C(F)(F)F)c2)cc1C#Cc1cnc2[nH]ncc2c1 [GZD-824, reference compound] | – | 3.13 | 0.93 | 13.60 | 13.32 | 2.45 | 1.00 | 3.67 | 22.54 | 0.50 | 1.51 | -1.37 | –
10 | C[C@@H]1CN(c2cc(-c3n[nH]c4ccc(OC5(C)CC5)cc34)ncn2)C[C@H](C)O1 [MLi2] | – | 0.14 | 0.07 | 0.11 | -0.06 | 0.28 | 0.03 | 0.17 | 0.51 | 1.94 | 0.12 | -0.93 | –
11 | Cn1cc(-c2c[nH]c3ncnc(N4CCOCC4)c23)cc1C#N [PFE-360] | – | 1.66 | -0.14 | -0.23 | 0.89 | -0.08 | -0.13 | 8.08 | 2.46 | 1.10 | -0.34 | -1.84 | –
12 | Cc1ccc(C(=O)Nc2ccc(CN3CCN(C)CC3)c(C(F)(F)F)c2)cc1C#Cc1cnc2cccnn12 [Ponatinib, reference compound] | – | – | – | – | 12.49 | 1.53 | 0.07 | 1.61 | 18.52 | – | – | -1.37 | –
13 | CNC(=O)c1cc(Oc2ccc(NC(=O)Nc3cc(C(C)(C)C)nn3-c3ccc4ncccc4c3)c(F)c2)ccn1 [Rebastinib, reference compound] | -1.54 | -0.79 | 1.75 | 14.66 | 10.35 | 10.52 | 3.06 | 1.83 | – | 5.73 | 3.35 | 0.18 | 9.62
14 | CN[C@@H]1C[C@H]2O[C@@](C)([C@@H]1OC)n1c3ccccc3c3c4c(c5c6ccccc6n2c5c31)C(=O)NC4 [Staurosporine] | – | – | 8.41 | 7.17 | – | – | – | 20.49 | 13.08 | – | 12.09 | 3.20 | 4.52
